In a melting point compilation (Tetko et al.; mined from patent text by program, amines drawn as free bases though some values may be those of a salt):

Compound `O=C(Nc1nc(C(F)(F)F)c(I)s1)c1cc(C(F)(F)F)cc(C(F)(F)F)c1` has a melting point of 172 to 173 °C.
`Nc1nn(-c2c(Cl)cc(C(F)(F)F)cc2Cl)cc1C1CC1(Br)Br` (stereo not given) gave a melting point of 125 to 126 °C.
With `O=C(c1nc2ccc(O)cc2[nH]1)N1CCC(=Cc2ccc(Cl)cc2)CC1` the melting point was 88 to 89 °C.
In the case of `CN(Cc1cc2c3c(c1)c(=O)c(C(=O)NCc1ccc(Cl)cc1)cn3CC(=O)N2C)C[C@@H](O)c1ccsc1`, the melting point is reported as 137 to 139 °C.
Work on `Cc1cc2c(cc1-c1csc(C=CC(=O)O)c1)C(C)(C)CCC2(C)C` yielded a melting point of 215 to 220 °C.
`N#CC(c1ccncc1)c1nnc(Nc2ccc3ncsc3c2)c2ccccc12` (stereo not given) gave a melting point of 163 to 164 °C.
With `CC(C)CNCc1cc2cc(NC(=O)c3ccc(C#CC4(O)CCC4)cc3)ccc2n1C` the melting point was 168 to 169 °C.
With `Cc1ccc(C(=O)NC(=O)Nc2ccc3c(c2)NC(=O)/C3=C\c2ccc[nH]2)cc1` the melting point was 276 to 281 °C.
Compound `Nc1cc(Cl)c(S)cc1S(N)(=O)=O` has a melting point of 192 to 195 °C.
Work on `COc1cccc(N2C(c3ccccc3Cl)=NS(=O)(=O)c3cnccc32)c1` yielded a melting point of 227 to 229 °C.
`COC(=O)c1ccc(NC(=O)[C@H](Cc2ccccc2)NC(=O)OC(C)(C)C)cc1` showed a melting point of 173 to 175 °C.
With `O=C1Cc2ccccc2Sc2cc(F)c(F)cc21` the melting point was 110 to 112 °C.
Compound `C=CCN(CC=C)C(=O)C1CC(C)(C)NC(C)(C)C1` has a melting point of 64 to 67 °C.
Compound `O=C(NOC(=O)c1ccc(Cl)cc1)OCc1ccccc1` has a melting point of 97 °C.
In the case of `O=C1CCC(c2ccc(N3CC(CO)OC3=O)cc2)CC1` (racemic), the melting point is reported as 152 °C.
Work on `Nc1sc2c(c1C(=O)c1cccs1)CCC(Cc1ccccc1)C2` (stereo not given) yielded a melting point of 116 to 118 °C.
`N#CCCNC(=O)c1n[nH]cc1NC(=O)c1cc2ccccc2o1` showed a melting point of 231 to 233 °C.
With `COC(=O)C=Cc1ccc2[nH]ccc2c1` the melting point was 138 to 140 °C.
`COc1ccc(-n2c(-c3ccc(OCCCl)cc3)nc3c(OC)cccc3c2=O)cc1` showed a melting point of 151 to 152 °C.
Compound `Cn1cc(C=CC(=O)Nc2ccc(O)cc2)c([N+](=O)[O-])n1` has a melting point of 290 to 293 °C.
Compound `Fc1cccc(CSc2nnc(-c3ccnc4[nH]ccc34)o2)c1` has a melting point of 190 to 191 °C.
Compound `c1cc(-c2ccc(-c3cn([C@H]4CN5CCC4CC5)nn3)s2)ccc1CN1CCCCC1` has a melting point of 230 °C.
Compound `CCCCCCCCCCCCCCCCCCN(C)S(=O)(=O)c1ccc(Cl)c([N+](=O)[O-])c1` has a melting point of 86 to 87 °C.
With `COC(=O)c1cc(-c2cccc(C(F)(F)F)c2)c[nH]c1=O` the melting point was 195 to 201 °C.
Compound `O=C1C(=O)c2ccc(Br)cc2C2=C1SCC1(CCN(CC(O)COc3ccc(Cl)cc3)CC1)O2` (stereo not given) has a melting point of 150 to 152 °C.
For `COc1nn(Cc2ccc(OCc3nc(-c4ccccc4)oc3C)cc2)cc1CCC(=O)O`, the melting point was 127 to 128 °C.
For `CCCCCCS(=O)(=O)c1nn2c(=O)cc(C#N)nc2s1`, the melting point was 144 to 146 °C.
In the case of `CN(C)[C@@H]1Cc2cccc(O)c2C[C@H]1O` (relative stereo), the melting point is reported as 168 to 170 °C.
For `CCC1(c2cccs2)OCC(=O)Nc2ccc(-c3coc(C#N)c3)cc21` (stereo not given), the melting point was 99 to 100 °C.
With `Nc1nc2cc(Cl)c(Cl)cc2nc1-c1cccs1` the melting point was 235 to 237 °C.
`CCCc1c(OCc2ccc(C(=O)O)cc2)ccc(C(C)=O)c1O` gave a melting point of 188 °C.
In the case of `Cc1cc([N+](=O)[O-])cc(N)c1[N+](=O)[O-]`, the melting point is reported as 125 to 127 °C.
`CCOC(=O)CC1CN=C(c2cc3c(C)ccc(N(C)S(=O)(=O)c4cccs4)c3[nH]2)S1` (stereo not given) showed a melting point of 109 to 110 °C.
Work on `COCCOc1nc(SC)c(C#N)c(N2CCc3ccccc3CC2)n1` yielded a melting point of 108 to 111 °C.
Compound `C=CCn1c(=O)n(-c2ccc3c(c2)OCO3)c2ncc([N+](=O)[O-])cc21` has a melting point of 152 to 153 °C.
Compound `NS(=O)(=O)c1ccc(-c2cccn2-c2ccc(Cl)cc2Cl)cc1` has a melting point of 147 to 149 °C.
`COc1ccnc(CCc2nc3cc(-c4ccncc4)cnc3[nH]2)c1` showed a melting point of 237 to 238 °C.
`Cc1cc(Cl)cc2c(=O)oc(-c3cc(Cl)nn3-c3ncccc3Cl)nc12` showed a melting point of 199 to 201 °C.
`Cc1cc(-c2cc(C(F)(F)F)n3ncc(C(=O)Nc4cccc(S(=O)(=O)N5CCN(C)CC5)c4)c3n2)ccc1Cl` showed a melting point of 143 °C.
`c1ccc(-c2nccn3cnnc23)cc1` showed a melting point of 238 to 239 °C.
`CCOC(=O)N1CCC(Nc2nc3cccnc3n2Cc2ccco2)CC1` showed a melting point of 149 °C.
`Cc1ccc(C)c(Sc2ccc(C#N)cc2S(=O)(=O)N2CCOCC2)c1` gave a melting point of 181 to 184 °C.
Compound `CCCOc1ccc(C(=O)Nc2ccccc2NC(=O)c2ccc(OCCC)cc2)cc1` has a melting point of 195 °C.
Work on `COc1ccc(CC(C(=O)O)N(CCCNC(=O)OC(C)(C)C)C(=O)CBr)cc1` (stereo not given) yielded a melting point of 79 to 81 °C.
Compound `CCN(CC)CCCOc1ccc(C(=O)c2c(-c3ccc(OC)cc3)oc3ccccc23)cc1` has a melting point of 102 to 110 °C.
`NC(=O)c1sc2nccc(NC3CCCCC3)c2c1N` showed a melting point of 244 to 247 °C.
For `C1CCc2c(c3c(N4CCCC4)nc(N4CCCC4)nc3n2CCN2CCOCC2)C1`, the melting point was 132 to 133 °C.
With `CCCOc1cc(Oc2ccc(C(F)(F)F)cn2)ccc1CCCOc1c(CC(=O)O)cccc1OC` the melting point was 78 to 79 °C.
`C=CCC12CC(c3ccccc31)c1ccccc12` showed a melting point of 42 to 43 °C.
Work on `CCOC(=O)C1=C(C)N(C(=O)OCC)C(C)=C(C(=O)OCC)C1c1ccccc1C(F)(F)F` yielded a melting point of 56 to 58 °C.
`CCC1(c2ccc3cc(OC)ccc3c2)OC(C(=O)OC)C(C(=O)OC)O1` (stereo not given) showed a melting point of 72 to 73 °C.
With `CCCNc1ncc2c(=O)[nH]c(-c3ccccc3OCCC)nc2n1` the melting point was 185 to 187 °C.
`Cc1ccc(CNC(=O)c2ccc3n2Cc2ccccc2N(C(=O)COc2ccc(Cl)cc2)C3)cc1` showed a melting point of 174 to 176 °C.
Work on `CCOC(=O)Nc1cccc(C)c1C(=O)OCC` yielded a melting point of 38.5 to 39.5 °C.
With `COc1ccc(Cn2nc(-c3ccc(S(C)=O)cc3)c(-c3ccc(F)cc3)cc2=O)cc1` (stereo not given) the melting point was 81.3 to 81.5 °C.
With `Cn1cc(-c2cc3cccnc3[nH]2)c2ccc(C(=O)Nc3nc[nH]n3)cc21` the melting point was 343 to 345 °C.
With `Oc1cccnc1Oc1cccc(Cl)c1` the melting point was 109 to 110 °C.
Compound `Cc1cn(C2(C(=O)N(C)C)CCC2)nc1-c1ccccc1` has a melting point of 87 to 89 °C.
Compound `COc1ccccc1C(=O)c1sc(NCCc2ccc(Cl)cc2)nc1N` has a melting point of 150 to 151 °C.
`COc1c(C2CCN(CCCCNC(=O)c3ccc(-c4ccc(NS(C)(=O)=O)cc4)cc3)CC2)ccc2c1CCCC2` gave a melting point of 200 to 202 °C.
Compound `C=CCOc1nc2c(c3ccccc13)c1cc(Cl)ccc1n2C` has a melting point of 147 to 148 °C.
For `O=C1CCC(c2ccccc2)(c2ccccc2)C2CN(C(Cc3ccccc3)=NCc3ccccn3)CC12` (stereo not given), the melting point was 180 °C.
With `c1ccc2cc(OCCCNC3CCCCC3)ccc2c1` the melting point was 98 °C.
Compound `COc1ccc(CN2C(=O)C3CCCC3=Nc3ccccc32)cc1` (stereo not given) has a melting point of 128 to 131 °C.
Work on `NC(=O)C(OC(=O)c1ccccc1Cl)(C(N)=O)c1ccc(Cl)c(Cl)c1` yielded a melting point of 220 °C.
In the case of `Nc1ncc(-c2ccc(F)c(F)c2)nc1C(=O)Nc1cccnc1`, the melting point is reported as 232 to 234 °C.
`O=C(C=Cc1ccccc1[N+](=O)[O-])CC(=O)NC1CC1` showed a melting point of 133 to 134 °C.
In the case of `CC(=O)Nc1ccc(NC(C)=O)c2c1C(=O)c1ccccc1C2=O`, the melting point is reported as 278 to 280 °C.
For `O=C1NC(=O)C(c2c[nH]c3ccccc23)C1C(=O)c1cn2c3c(cccc13)CCC2` (stereo not given), the melting point was 283 to 285 °C.
Compound `CCOC(=O)N1CCN(C(c2ccccc2)c2ccccc2)CC1(C)Cc1ccc(OC)c(OC)c1` (stereo not given) has a melting point of 101 °C.
`COc1ccc(-n2nc(CC(C)(C)C(=O)O)cc2-c2ccc(Cl)cc2)cc1` showed a melting point of 172 to 174 °C.
For `COC(=O)C1(C(N)=O)C(C(N)=O)=NC(c2ccccc2)=C1N` (stereo not given), the melting point was 177 to 179 °C.
Work on `CNc1nc(-c2ccccc2)ccc1[N+](=O)[O-]` yielded a melting point of 98 to 99 °C.
For `COC(=O)CC(=O)NCc1cc(Br)cc2[nH]c(=O)c(=O)[nH]c12`, the melting point was > 300 °C.
In the case of `CC(C)(C)OC(=O)C[C@@H]1C[C@@H](COc2ccc(-c3ccc(C#N)c(F)c3)cc2)NC1=O`, the melting point is reported as 142 to 144 °C.
With `O=Cc1cccn1-c1ncccc1[N+](=O)[O-]` the melting point was 122 to 125 °C.
`CCCCCCCCCCCc1cc2ccc(C(=O)OCC(O)CO)cc2[nH]1` (racemic) gave a melting point of 110 to 112 °C.
Compound `CCOC(=O)c1cccc2nc(CC)n(Cc3ccc(-c4ccccc4-c4nnn[nH]4)cc3)c12` has a melting point of 188 to 189 °C.
With `CN(Cc1ccccc1)C(=O)c1cnc2c3c(c(F)cc2c1)C(=O)C(C#N)C=N3` (stereo not given) the melting point was 267 to 269 °C.
Compound `CN(C)CCN1C(=O)C(C)(C)SC1c1cccnc1` (stereo not given) has a melting point of 67 to 70 °C.
With `C=CCc1c(C(C)C)nc(C(C)C)c(CO)c1-c1ccc(F)cc1` the melting point was 69 to 71 °C.
For `O=C(N[C@@H](CCCCNSc1ncccc1[N+](=O)[O-])C(=O)N[C@H](CCC(=O)N1c2ccccc2C[C@H]1C(=O)O)C(=O)O)OCc1ccc2c(c1)OCO2`, the melting point was 100 to 110 °C.
Compound `COC1(c2cc(F)cc(OCc3ccc4c(c3)C(=O)N(C)S4(=O)=O)c2)CCOCC1` has a melting point of 155 to 156 °C.
`CCC1c2ccccc2-c2cc(-c3cccc4c3oc3ccccc34)ccc2N1S(=O)(=O)c1ccc(O)cc1` (stereo not given) showed a melting point of 218 to 220 °C.
`COc1ccc(-c2cc(C(N)=O)c(=O)n(CC=Cc3ccccc3)n2)cc1` showed a melting point of 184 to 186 °C.
In the case of `CCOC(=O)c1cnc2c(c(C)nn2-c2ccccc2)c1N(Cc1cccnc1)S(=O)(=O)c1ccc(OC)cc1`, the melting point is reported as 148 to 150 °C.
In the case of `COc1cc([C@@H](O)[C@@H](C)N2CCC(O)(c3ccccc3)CC2)ccc1OCc1ccccc1` (relative stereo), the melting point is reported as 131 to 132 °C.
With `O=C1CCN(Cc2ccccc2OC(F)(F)F)CC1C(c1ccc(F)cc1)c1ccc(F)cc1` (stereo not given) the melting point was 88 to 89 °C.
Compound `CCC(=O)NC1Cc2ccccc2C(Cc2ccccc2)C1` (stereo not given) has a melting point of 148 to 149 °C.
Compound `O=C1CC(c2ccccc2)c2cc(C(c3ccc(Cl)cc3)n3ccnc3)ccc2N1` (stereo not given) has a melting point of 225 °C.
`Cc1cc(I)sc1COCP(=O)(OC(C)C)OC(C)C` showed a melting point of 39 to 40 °C.
With `Cn1cc(-c2ccc(=O)n(Cc3cccc(-c4ncc(OCCO)cn4)c3)n2)cn1` the melting point was 182 to 183 °C.
Work on `O=C1c2ccccc2C(=O)N1CCCC=NNc1ccc(S(=O)(=O)Nc2ccccc2)cc1` yielded a melting point of 126 to 129 °C.
With `CNS(=O)(=O)CCc1ccc2[nH]cc(CCCN3C(=O)c4ccccc4C3=O)c2c1` the melting point was 169 to 170 °C.
Work on `CNCC(O)COc1ccc(C#N)cc1` (stereo not given) yielded a melting point of 100 to 102 °C.
